Our source for the Ki values is ChEMBL document CHEMBL1128133, “Synthesis and binding affinity of 2,3,3a,4,9,9a-hexahydro-9,4-(iminomethano)-1H-benz[f]indenes. Ligands for the PCP site of the NMDA receptor” (Bioorg Med Chem Lett, 1995).

Structures are written as SMILES.

One may read the Ki as the equilibrium dissociation constant of an inhibitor or competing ligand from its target. Read a high Ki as weaker binding.

This assay is described as follows: Binding affinity against PCP site of the NMDA Receptor using [3H]TCP radioligand.
The compound `C[C@]12N[C@H](Cc3ccccc31)c1ccccc12` [DIZOCILPINE] returned a Ki of 2.2 nM.

Regarding `C[C@H]1NC2c3cccc(N)c3C1C1CCCC21` (stereo not given in full), the Ki is 8 nM.

`c1ccc2c(c1)C1CNC2C2CCCC12` (stereo not given) gave a Ki of 52 nM.

Take `CN1CC2c3c(N)cccc3C1C1CCCC21` (stereo not given): the affinity corresponds to a Ki of 226 nM.

For `CN1CC2c3ccccc3C1C1CCCC21` (stereo not given), the Ki came to 1140 nM.

`C[C@@H]1NC2c3cccc(N)c3C1C1CCCC21` (stereo in doubt; 12a) displayed a Ki of 89 nM.

On to `Oc1cccc(C2(N3CCCCC3)CCCCC2)c1`, for which affinity was put at a Ki of 38 nM.

`Nc1cccc2c1C1CNC2C2CCCC12` (stereo not given) registered a Ki of 14 nM.

`C[C@@H]1NC2c3cccc(N)c3C1C1CCCC21` (stereo in doubt; 13): affinity was put at a Ki of 1200 nM.

The compound `CN1CC2c3c(N)cccc3C1C1C=CCC21` (stereo not given) had a Ki of 701 nM.
